From article PMC3389297 (Bioorganic & medicinal chemistry, 2012)
Entries after “also recorded” stand apart in the source; their conditions may differ.

Tests used:
Assay type in all cases: biochemical
Cdc25b = biological target: T1, Cdc25b (Homo sapiens, UniProt P30305); experiment: OMFP phosphatase assay, Cdc25b; details: for Mode of inhibition of Cdc25b: Michaelis-Menten kinetics, varying inhibitor concentrations; for Reversibility of inhibition of Cdc25b: dilution method: pre-incubation at 4 times IC50, 10-fold dilution
T1 sequence (P30305 431-538 limits assumed): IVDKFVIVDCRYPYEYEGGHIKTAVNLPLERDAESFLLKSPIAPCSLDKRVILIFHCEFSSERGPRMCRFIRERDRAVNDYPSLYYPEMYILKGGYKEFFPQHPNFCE

Cdc25c = biological target: T2, Cdc25c (Homo sapiens, UniProt P30307); experiment: OMFP phosphatase assay, Cdc25c
T2 sequence (P30307 321-428 limits assumed): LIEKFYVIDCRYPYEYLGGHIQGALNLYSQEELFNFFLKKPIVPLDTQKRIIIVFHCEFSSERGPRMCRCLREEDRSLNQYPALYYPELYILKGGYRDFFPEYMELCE

PTP-β = PTP-β (Homo sapiens, UniProt P23467); experiment: Colorimetric PTP-β assay using p-NPP as substrate; details: 5 µM compound; 1 mM p-NPP as substrate
Chain of PTP-β (P23467 1703-1963 limits assumed): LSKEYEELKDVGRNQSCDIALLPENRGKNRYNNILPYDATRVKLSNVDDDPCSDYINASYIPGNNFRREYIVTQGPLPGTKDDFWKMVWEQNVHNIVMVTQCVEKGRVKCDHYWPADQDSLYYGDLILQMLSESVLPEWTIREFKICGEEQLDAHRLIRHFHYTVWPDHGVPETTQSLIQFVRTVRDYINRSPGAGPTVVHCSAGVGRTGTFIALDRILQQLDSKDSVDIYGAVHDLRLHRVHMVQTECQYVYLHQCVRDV

Cdc25a = biological target: T3, Cdc25a (Homo sapiens, UniProt P30304); experiment: OMFP phosphatase assay, Cdc25a; details: for Mode of inhibition of Cdc25a: Michaelis-Menten kinetics, varying inhibitor concentrations; for Reversibility of inhibition of Cdc25a: dilution method: pre-incubation at 4 times IC50, 10-fold dilution
T3 sequence (P30304 376-482 limits assumed): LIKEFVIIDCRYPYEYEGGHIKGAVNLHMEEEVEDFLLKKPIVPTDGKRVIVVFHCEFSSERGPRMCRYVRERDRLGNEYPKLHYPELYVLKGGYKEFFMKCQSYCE

Structure (SMILES) | Mode of inhibition of Cdc25b (Cdc25b; OMFP) | Reversibility of inhibition of Cdc25b (Cdc25b) | Effect on activity of Cdc25c (Cdc25c; 10 µM compound) | Inhibition of PTP-β (PTP-β) | Mode of inhibition of Cdc25a (Cdc25a; OMFP) | Reversibility of inhibition of Cdc25a (Cdc25a) | Potency relative to 13778 for Cdc25b (fold lower) (Cdc25b; OMFP) | Effect on activity of Cdc25c (Cdc25c; at the concentrations tested) | Potency relative to 13778 for Cdc25a (fold lower) (Cdc25a; OMFP)
O=C(O)/C=C/c1ccc[c]([Sb](=[O])([OH])[OH])c1 [Compound 13778, (E)-3-(3-stibonophenyl)acrylic acid] | partial mixed-type mode of inhibition | reversible | not substantially affected | almost completely inhibiting phosphatase activity | partial mixed-type mode of inhibition | reversible | – | – | –
O=C(O)CCc1ccc[c]([Sb](=[O])([OH])[OH])c1 [Compound P6949, 3-(3-stibonophenyl)propanoic acid] | partial mixed-type mode of inhibition | reversible | – | almost completely inhibiting phosphatase activity | partial mixed-type mode of inhibition | reversible | ~ 10 fold | not affected | ~ 30 fold
[O]=[Sb]([OH])([OH])[c]1ccccc1 [Compound 13744] | – | – | – | does not show any inhibitory effect; also recorded: No inhibition | – | – | – | – | –
